The compounds below were run on HL-60 (assay: Inhibitory dose against HL60 human leukemic cells after incubation for 48 h). Details: HL-60, 48 h, read-out: ID50 (the source's name).
Type: functional

Row | Structure (SMILES) | IC50
1 | CCCCCCCCCCCCCCCC(=O)NCC(COP(=O)([O-])OCC[N+](C)(C)C)OC (stereo unspecified) | 3.32 µM
2 | CCCCCCCCCCCCCCCC(=O)NCC(O)COP(=O)([O-])OCC[N+](C)(C)C (stereo unspecified) | > 10 µM
3 | CCCCCCCCCCCCCCCCCCOCC(COP(=O)([O-])OCC[N+](C)(C)C)OC (racemic) [EDELFOSINE] | 2.47 µM

The next lines start with the values.

Row | IC50 | Structure (SMILES)
4 | 2.32 µM | CCCCCCCCCCCCCCCC(=O)NCC(COP(=O)([O-])OCC[N+](C)(C)C)OCC (stereo unspecified)
5 | 1.64 µM | CCCCCCCCCCCCCCCCCC(=O)NCC(COP(=O)([O-])OCC[N+](C)(C)C)OCC (stereo unspecified)
6 | 2.45 µM | CCCCCCCCCCCCCCCCCC(=O)NCC(COP(=O)([O-])OCC[N+](C)(C)C)OC (stereo unspecified)

Source: ChEMBL document CHEMBL1124292, “Synthesis and evaluation of neoplastic cell growth inhibition of 1-N-alkylamide analogues of glycero-3-phosphocholine” (1988)
